Experimental data: patent US9969771B2, “Tetrapeptide having effect of inhibiting VEGF-induced angiogenesis and use thereof” (AVIXGEN INC., priority 2015, dated 2018)
“Also recorded” adds a separate entry of the source. Where a SMILES comes first, the peptide text is derived from it.

Key:
[1] = test system: zebrafish; experiment: Zebrafish angiogenesis assay; assay type: in vivo; settings: zebrafish embryo
Procedure: An adult zebrafish and an embryo were grown and maintained in a standard laboratory environment, and a zebrafish experiment was conducted according to the protocols approved by the animal ethics committee of Chungnam National University. To analyze angiogenesis, at 48 hours post fertilization (hpf), the embryo was anesthetized with tricaine (MS-222, 0.02%, embryo buffer), a peptide was administered, and FITC-dextran (2,000 kDa, Sigma) was further injected. A blood vessel image was obtained with a Leica DM5000B system at 72 hpf. As a probe for whole mount in situ hybridization, digoxigenin (DIG)-labeled RNA prepared by a cad5 (NM_001003983) gene was used. Meanwhile, a peptide was injected into the 18-hpf embryo collected at 25 hpf, fixed with 4% paraformaldehyde, washed with PBS (in 0.1% Tween20), and hybridized with DIG-labeled riboprobes (hybridization buffer). Subsequently, the resulting product was reacted with an alkaline phosphatase (AP)-conjugated anti-DIG antibody. Following reaction with an AP staining solution, a staining status was observed and visualized under a microscope (Leica, MZ-16).

[2] = target: T1, VEGFR-1 (Homo sapiens, UniProt P17948); experiment: VEGFR pull-down assay using biotin-labeled RLYE, VEGFR-1; assay type: binding; settings: HUVEC lysate
T1 construct: endogenous in cells; host or cells: HUVEC lysate
Procedure: HUVECs were lysed in a pull-down buffer [50 mM Tris-HCl (pH 8.0), 150 mM sodium chloride, 1.0% NP-40, 0.5% sodium deoxycholate and 0.1% SDS]. A lysate ([…] of proteins) was reacted with biotin-labeled RLYE (SEQ ID NO: 2) (0.15 or 1.5 nM) for 1 hour, and reacted with streptavidin-agarose beads ([…]) at 4° C. for 1 hour. RLYE (SEQ ID NO: 2)-binding proteins were isolated from the cell lysate through centrifugation, washed, and then boiled for 10 minutes. The bead-binding proteins were isolated by SDS-PAGE, and immunoblotting was performed with an antibody with respect to VEGFR-2 or VEGFR-1.

[3] = test system: FAK; experiment: Western blot, FAK phosphorylation in VEGF-A-stimulated HUVECs; assay type: cell-based, human; settings: HUVECs stimulated with VEGF-A
Procedure: (§1) Cells were lyzed in RIPA buffer, and 50 μg of proteins were isolated by SDS-PAGE and then transferred to a PVDF membrane. The membrane was reacted with an antibody with respect to a target protein for 2 hours. The membrane was washed twice and reacted with a horseradish peroxidase-conjugated antibody, and then an amount of the target proteins was assessed with an enhanced chemiluminescence system.

[4] = test system: VEGF-A-induced angiogenesis; experiment: Matrigel implantation, intravital fluorescence microscopy; assay type: in vivo, C57BL/6J mouse; settings: mouse, RLYE 1.5 nM, VEGF 100 ng
Procedure: Formation of new blood vessels was examined by intravital fluorescence microscopy. A C57BL/6J mouse was anesthetized, and then a titanium-made imaging window was installed between the skin and an abdominal wall by surgery. 100 μl of Matrigel containing RLYE (SEQ ID NO: 2) (1.5 nM) alone or in combination with VEGF (100 ng) was injected into an inner space between the skin and abdominal walls of the window. Four days later, 50 μl of dextran (MW 250 kDa) labeled with 25 mg/ml of FITC was injected into the caudal vein, and then formation of new blood vessels was observed under a Zeiss Axiovert 200M microscope (Carl Zeiss). A vascular length density of the FITC-labeled dextran-perfuse blood vessels per observation area (mm/mm2) was calculated.

[5] = test system: HUVECs; experiment: Confocal microscopy of FITC-RLYE binding to HUVECs; design: species or system human
Procedure: HUVECs were incubated on a cover glass coated with 2% gelatin, and then incubated with FITC-RLYE (SEQ ID NO: 2) (100 ng/ml) after being treated with VEGF-A (10 ng/ml) for 30 minutes or not treated. The cells were fixed in 3.7% formaldehyde for 30 minutes, treated with 0.2% TritonX-100-containing PBS, and reacted with a 3% goat serum and 0.05% Tween-20-containing PBS blocking solution. The cells were reacted with a PECAM-1 antibody at room temperature for 2 hours, washed with PBS, and reacted with a TRITC-conjugated secondary antibody at room temperature for 90 minutes. Samples were observed under a confocal microscope.

[6] = test system: Src; experiment: Western blot, Src phosphorylation in VEGF-A-stimulated HUVECs; assay type: cell-based, human; settings: HUVECs stimulated with VEGF-A
Procedure: as §1

[7] = test system: NO production in HUVECs; experiment: NO production in HUVECs (DAF-FM diacetate); assay type: cell-based, human; settings: peptide 0.15 nM, VEGF 10 ng/ml
Procedure: An NO amount produced in HUVECs was evaluated with DAF-FM diacetate. HUVECs were reacted with peptides (0.15 nM) and VEGF (10 ng/ml) for 4 hours, and incubated with DAF-FM diacetate (5 μM) in a CO2 constant temperature incubator, and the amount of NO produced in the cells was measured under a confocal microscope.

[8] = test system: HUVECs; experiment: VEGF-induced HUVEC proliferation, [3H]-thymidine incorporation assay; assay type: cell-based, human
Procedure: Human umbilical vein endothelial cells (HUVECs) were cultured in M199 medium, and during experiments, the cells were always used at passages 2 to 7. Meanwhile, mouse melanoma cells (B16F1 and B16F10) and human colorectal tumor cells (HCT116) were cultured in RPMI media supplemented with 10% FBS, 1 mM sodium pyruvate, 10 mM 4-(2-hydroxyethyl)-1-piperazineethanesulfonic acid and 100 U/ml penicillin-streptomycin, and human multiple myeloma cells (IM-9 and RPMI 8226) were cultured in RPMI-1640 media. All of the cells were cultured at 37° C. with 5% CO2 in a humidified incubator.
Angiogenic activity was determined by measuring cell proliferation, migration and tube formation. HUVEC proliferation was analyzed by a [3H]-thymidine incorporation assay. The HUVECs were seeded in a 24-well plate coated with gelatin at a density of 2×10^4 cells/well. […] […] […] 3H-labeled polymer DNA was evaluated with a liquid scintillation counter.

[9] = test system: HUVECs; experiment: HUVEC tube formation on Matrigel; assay type: cell-based, human
Procedure: Tube formation of HUVECs was examined using growth factor-reduced Matrigel (hereinafter, referred to as “Matrigel”). 250 μl of Matrigel (10 mg protein/ml) was placed in a 24-well plate to allow polymerization for 30 minutes at 37° C. […] The tube formation was examined under a reverse phase-contrast microscope, and visualized with Image-Pro Plus version 4.5 (Media Cybernetics, San Diego, Calif.). Five samples were randomly selected to measure and quantify a length of the tube formed above.

T1 sequence (P17948 27-1338): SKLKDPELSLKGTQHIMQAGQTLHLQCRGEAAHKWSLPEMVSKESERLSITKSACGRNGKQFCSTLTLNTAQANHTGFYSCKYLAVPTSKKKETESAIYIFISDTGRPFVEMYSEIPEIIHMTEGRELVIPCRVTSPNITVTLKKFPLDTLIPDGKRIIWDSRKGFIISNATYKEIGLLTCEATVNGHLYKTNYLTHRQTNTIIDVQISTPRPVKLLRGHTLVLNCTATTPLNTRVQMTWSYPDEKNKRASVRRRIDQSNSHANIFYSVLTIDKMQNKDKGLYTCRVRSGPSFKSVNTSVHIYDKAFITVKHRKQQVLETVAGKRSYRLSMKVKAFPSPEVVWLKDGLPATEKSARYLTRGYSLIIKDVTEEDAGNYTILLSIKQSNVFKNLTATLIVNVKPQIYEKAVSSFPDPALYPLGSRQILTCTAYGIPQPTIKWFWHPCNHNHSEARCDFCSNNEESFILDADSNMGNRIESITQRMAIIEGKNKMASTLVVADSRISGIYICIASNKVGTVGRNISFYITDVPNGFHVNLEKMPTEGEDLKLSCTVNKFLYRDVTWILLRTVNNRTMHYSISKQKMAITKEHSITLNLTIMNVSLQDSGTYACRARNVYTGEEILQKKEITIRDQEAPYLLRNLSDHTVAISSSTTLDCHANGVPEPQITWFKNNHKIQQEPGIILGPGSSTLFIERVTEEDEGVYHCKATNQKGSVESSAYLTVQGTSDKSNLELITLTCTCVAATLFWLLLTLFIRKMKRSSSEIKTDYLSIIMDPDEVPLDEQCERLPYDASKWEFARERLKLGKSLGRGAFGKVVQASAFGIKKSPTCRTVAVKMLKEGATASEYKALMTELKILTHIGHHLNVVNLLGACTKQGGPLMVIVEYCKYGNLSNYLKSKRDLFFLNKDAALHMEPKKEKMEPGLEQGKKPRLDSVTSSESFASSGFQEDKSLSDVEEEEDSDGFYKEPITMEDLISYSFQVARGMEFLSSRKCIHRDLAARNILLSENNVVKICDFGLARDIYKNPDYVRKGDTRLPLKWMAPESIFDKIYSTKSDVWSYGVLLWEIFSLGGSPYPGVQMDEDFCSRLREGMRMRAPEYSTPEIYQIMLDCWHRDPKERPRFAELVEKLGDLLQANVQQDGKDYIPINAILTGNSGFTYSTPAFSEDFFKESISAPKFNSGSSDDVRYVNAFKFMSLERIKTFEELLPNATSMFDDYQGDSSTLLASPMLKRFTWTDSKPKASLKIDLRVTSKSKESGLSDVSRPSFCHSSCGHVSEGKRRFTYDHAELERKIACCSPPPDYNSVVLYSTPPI

binding to VEGFR-1 (pull-down) [2]: does not bind to VEGFR-1
binding to HUVEC surface (confocal microscope) ([5]; pretreatment of VEGF-A): effectively blocked
binding to HUVEC surface (confocal microscope) ([5]; without VEGF-A pretreatment): binds to a HUVEC surface
SMILES: CC(C)C[C@H](NC(=O)[C@@H](N)CCCNC(=N)N)C(=O)N[C@@H](Cc1ccc(O)cc1)C(=O)N[C@@H](CCC(=O)O)C(=O)O [RLYE] (H-RLYE-OH; N-terminus and C-terminus assumed)
formation of intersegmental vessels (ISV) [1]: obviously inhibited
formation of subintestinal vessels (SIV) [1]: considerably inhibited
phosphorylation of FAK [3]: inhibited
VEGF-A-induced angiogenesis in Matrigel implant [4]: effectively inhibited
phosphorylation of Src [6]: inhibited
inhibition of VEGF-induced NO production [7]: effectively blocked; also recorded: effectively inhibited; also recorded: higher inhibitory effect than the control KLYD
inhibition of VEGF-induced HUVEC proliferation ([8]; VEGF 10 ng/ml, [3H]-thymidine incorporation): effectively inhibited
IC50 lower than that of the control KLYD (HUVEC proliferation) ([8]; versus KLYD): 10 fold
inhibition of VEGF-induced tube formation ([9]; HUVECs, peptide 0.15 nM, VEGF 10 ng/ml): effectively regulated; also recorded: much higher inhibitory effect on the tube formation than KLYD; also recorded: effectively inhibited
bFGF-induced tube formation of HUVECs ([9]; bFGF stimulated): did not inhibit
